Reference: patent US11319601B2, “Cell based assay” (Medical Diagnostic Laboratories, L.L.C., priority 2017, dated 2022)

What was measured:
[1] = biological target: T1, L755S HER2 receptor (Homo sapiens, UniProt P04626, L755S); assay: HER2 reporter cells transfected with linear expression cassette of L755S HER2, all-in-one method; format: cell-based; details: 24 hours post-transfection
T1 construct: expressed in transfected cells; host or cells: HER2 reporter cells (clone #1)
Excerpt: L755S corresponds to a missense mutation of HER2, which changes leucine (L) into serine (S) at amino acid position of 755. In order to functionally characterize this mutation, PCR-mediated overlapping extension was employed to construct linear expression cassette of HER2 carrying this mutation. The linear expression cassette of mutant HER2 DNA was first transfected into the reporter cells followed by treatment with NRG1 and its inhibitors using the “all-in-one” method. The luciferase reporter activity was measured 24 hours post-transfection.

[2] = biological target: T2, P780ins HER2 receptor (Homo sapiens, UniProt P04626, INS780GSP); assay: HER2 reporter cells transfected with linear expression cassette of P780ins HER2, all-in-one method; format: cell-based
T2 construct: expressed in transfected cells; host or cells: HER2 reporter cells (clone #1)
Excerpt: P780ins corresponds to an insertion mutation of HER2, which adds 3 amino acids (GSP) after the amino acid position of […] (Proline—P). In order to functionally characterize this mutation, PCR-mediated overlapping extension was employed to construct linear expression cassette of HER2 carrying this insertion. The linear expression cassette of mutant HER2 DNA was first transfected into the reporter cells followed by treatment with NRG1 and its inhibitors using the “all-in-one” method. The luciferase reporter activity was measured 24 hours post-transfection.

[3] = biological target: HER2 receptor (Homo sapiens, UniProt P04626); assay: Luciferase reporters (ERK-Luc, FRE-Luc, JNK-Luc, NFkB-Luc) in HEK293 cells overexpressing HER2, treated with lapatinib; format: cell-based; details: 10 nM, 4 hours
Method: In order to identify a reporter to measure the activity of HER2 receptor, the HEK293 cells were transfected with different reporter constructs, including ERK-Luc, FRE-Luc, JNK-Luc and NFkB-Luc, in the absence or presence of HER2 expression plasmid. After 24 hours, the luciferase reporter activity of the transfected cells was measured by Nano-Glo® Luciferase Assay (Promega). […] The luciferase reporter activity of the transfected cells was measured by Nano-Glo® Luciferase Assay (Promega). […] For cell transfection experiments, HEK293 cells (ATCC) were plated at density of 4-8×10^4 cells per well (96-well plates) or 1-2×10^4 cells per well (384-well plates) in phenol red-free MEM containing 10% FBS and antibiotics. Either DNA plasmid or linear DNA was mixed with TransIT-293 transfection reagent (Mirus Bio LLC). Once cells were trypsinized, DNA transfection mix was added. The cells were then incubated for 24 or 48 hours.

[4] = biological target: T3, T862A HER2 receptor (Homo sapiens, UniProt P04626, T862A); assay: HER2 reporter cells transfected with linear expression cassette of T862A HER2, all-in-one method; format: cell-based; details: 24 hours post-transfection
T3 construct: expressed in transfected cells; host or cells: HER2 reporter cells (clone #1)
Excerpt: T862A corresponds to a missense mutation of HER2, which changes Threonine (T) into Alanine (A) at amino acid position of 862. In order to functionally characterize this mutation, PCR-mediated overlapping extension was employed to construct a linear expression cassette of HER2 carrying this mutation. The linear expression cassette of mutant HER2 DNA was transfected into the reporter cells followed by treatment with NRG1 and its inhibitors using the “all-in-one” method. The luciferase reporter activity was measured 24 hours post-transfection.

[5] = system: HER1, HER2 and HER3 receptors; assay: ERK-Luc, JNK-Luc and NFkB-Luc reporters in HEK293 cells co-transfected with HER1, HER2 and HER3, treated with ligand; format: cell-based, human; details: ligand 6 hours; HER1, HER2, HER3 co-transfected HEK293
Method: In order to identify reporters to measure the activity of HER2 receptor, expression plasmids of HER1, HER2 and HER3 were co-transfected with different reporter constructs, including ERK-Luc, JNK-Luc and NFkB-Luc, into the HEK293 cells. After 24 hours, the transfected cells were treated with either EGF (HER1 receptor ligand) or NRG1 (HER3 receptor ligand) for 6 hours. The luciferase reporter activity of the transfected cells was measured by Nano-Glo® Luciferase Assay (Promega). […] JNK-Luc reporter was activated when the transfected cells were treated with either HER1 or HER3 ligand (FIG. 11B).
(§1) For cell transfection experiments, HEK293 cells (ATCC) were plated at density of 4-8×10^4 cells per well (96-well plates) or 1-2×10^4 cells per well (384-well plates) in phenol red-free MEM containing 10% FBS and antibiotics. Either DNA plasmid or linear DNA was mixed with TransIT-293 transfection reagent (Mirus Bio LLC). Once cells were trypsinized, DNA transfection mix was added. The cells were then incubated for 24 or 48 hours.

[6] = system: HER1 and HER2 receptors; assay: JNK-Luc reporter in HEK293 cells with HER1 and wild-type or kinase-dead HER2, treated with EGF; format: cell-based, human; details: HER1 plus wild-type or kinase-dead HER2
Method: In order to characterize the specificity of activation of JNK-Luc reporter upon treatment of HER1 ligand, JNK-Luc was co-transfected with expression plasmids of HER1 and wild-type or kinase-dead HER2 receptors into the HEK293 cells. After 24 hours, the transfected cells were treated with EGF (HER1 receptor ligand). The luciferase reporter activity of the transfected cells was measured by Nano-Glo® Luciferase Assay (Promega). In FIG. 12, no difference was found between the cells transfected with wild-type HER2 and kinase-dead HER2.
as §1

| reporter activity after HER2 inhibitor in the presence of NRG1 [1] | activity retained compared to the cells without the treatment of inhibitor ([2]; high concentration of lapatinib, in the presence of NRG1) | inhibition of increased reporter activities upon HER2 expression [3] | reporter activity after HER2 inhibitor in the presence of NRG1 [4] | Compound | reporter activity after HER2 inhibitor in the presence of NRG1 ([2]; all-in-one method, 24 hours post-transfection) | JNK-Luc reporter activation [5] | NFkB-Luc reporter activation [5] | JNK-Luc reporter activation [6] |
| --- | --- | --- | --- | --- | --- | --- | --- | --- |
| did not respond | more than 75% | did not inhibit | did not respond | CS(=O)(=O)CCNCc1ccc(-c2ccc3ncnc(Nc4ccc(OCc5cccc(F)c5)c(Cl)c4)c3c2)o1 [Lapatinib] | very minor reduction of reporter activity | – | – | – |
| – | – | – | – | EGF: HER1 receptor ligand (NSDSECPLSHDGYCLHDGVCMYIEALDKYACNCVVGYIGERCQYRDLKWWELR) | – | activated | no activation | effectively activated |
